Measurements from ChEMBL document CHEMBL1134520, “Potent somatostatin undecapeptide agonists selective for somatostatin receptor 1 (sst1)” (J Med Chem, 2001).
pIC50: −log10 of the molar value. Bridge positions count the residues as written; N and C are the ends. Square brackets hold non-standard residues; d marks the D form. Peptide text beside a SMILES is read from it. Phe(4-CH2NHiPr) = CC(C)NCc1ccc(C[C@H](N)C(=O)O)cc1; d2Nal = N[C@H](Cc1ccc2ccccc2c1)C(=O)O

How the values were obtained:
[1] = molecular target: Somatostatin receptor type 1 (Homo sapiens, UniProt P30872); test: Tested for ability to bind to 20 uM thick cryostat sections of a membrane pellet of cells transfected with human cloned somatostatin (sst) receptor subtype 1.
Somatostatin receptor type 1, sequence (P30872 whole entry): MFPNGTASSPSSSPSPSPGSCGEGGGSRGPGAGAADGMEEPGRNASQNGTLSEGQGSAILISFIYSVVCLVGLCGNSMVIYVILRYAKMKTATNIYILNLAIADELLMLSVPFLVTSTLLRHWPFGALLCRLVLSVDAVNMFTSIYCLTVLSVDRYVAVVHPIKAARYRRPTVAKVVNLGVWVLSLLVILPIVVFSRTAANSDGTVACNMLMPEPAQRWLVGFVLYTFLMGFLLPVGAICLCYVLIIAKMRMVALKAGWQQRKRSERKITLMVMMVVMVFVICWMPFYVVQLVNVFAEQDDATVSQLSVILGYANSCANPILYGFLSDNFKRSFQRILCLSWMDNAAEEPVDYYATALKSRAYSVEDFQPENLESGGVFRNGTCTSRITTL

[2] = molecular target: Somatostatin receptor type 5 (Homo sapiens, UniProt P35346); test: Tested for ability to bind to 20 uM thick cryostat sections of a membrane pellet of cells transfected with human cloned somatostatin (sst) receptor subtype 5.
Somatostatin receptor type 5, sequence (P35346 whole entry): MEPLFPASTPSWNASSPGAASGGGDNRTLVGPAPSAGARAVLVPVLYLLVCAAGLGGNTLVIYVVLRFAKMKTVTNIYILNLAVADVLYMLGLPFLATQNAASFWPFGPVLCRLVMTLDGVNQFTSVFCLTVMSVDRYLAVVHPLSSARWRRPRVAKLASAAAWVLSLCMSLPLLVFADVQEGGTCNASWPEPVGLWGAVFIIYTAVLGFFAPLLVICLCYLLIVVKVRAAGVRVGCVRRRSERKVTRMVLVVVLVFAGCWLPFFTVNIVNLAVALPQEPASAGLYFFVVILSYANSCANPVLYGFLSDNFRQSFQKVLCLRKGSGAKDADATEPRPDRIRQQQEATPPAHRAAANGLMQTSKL

[3] = molecular target: Somatostatin receptor type 2 (Homo sapiens, UniProt P30874); test: Tested for ability to bind to 20 uM thick cryostat sections of a membrane pellet of cells transfected with human cloned somatostatin (sst) receptor subtype 2.
Somatostatin receptor type 2, sequence (P30874 whole entry): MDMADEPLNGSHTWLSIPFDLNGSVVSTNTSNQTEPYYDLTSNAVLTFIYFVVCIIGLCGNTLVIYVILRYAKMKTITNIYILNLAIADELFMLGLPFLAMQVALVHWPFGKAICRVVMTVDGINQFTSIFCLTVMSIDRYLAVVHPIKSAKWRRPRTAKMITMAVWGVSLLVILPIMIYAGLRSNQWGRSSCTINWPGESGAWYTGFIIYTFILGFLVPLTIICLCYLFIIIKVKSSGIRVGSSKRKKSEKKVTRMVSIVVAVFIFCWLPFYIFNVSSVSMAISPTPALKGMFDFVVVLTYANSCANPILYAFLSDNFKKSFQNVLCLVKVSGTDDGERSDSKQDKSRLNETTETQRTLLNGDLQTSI

[4] = molecular target: Somatostatin receptor type 4 (Homo sapiens, UniProt P31391); test: Tested for ability to bind to 20 uM thick cryostat sections of a membrane pellet of cells transfected with human cloned somatostatin (sst) receptor subtype 4.
Somatostatin receptor type 4, sequence (P31391 whole entry): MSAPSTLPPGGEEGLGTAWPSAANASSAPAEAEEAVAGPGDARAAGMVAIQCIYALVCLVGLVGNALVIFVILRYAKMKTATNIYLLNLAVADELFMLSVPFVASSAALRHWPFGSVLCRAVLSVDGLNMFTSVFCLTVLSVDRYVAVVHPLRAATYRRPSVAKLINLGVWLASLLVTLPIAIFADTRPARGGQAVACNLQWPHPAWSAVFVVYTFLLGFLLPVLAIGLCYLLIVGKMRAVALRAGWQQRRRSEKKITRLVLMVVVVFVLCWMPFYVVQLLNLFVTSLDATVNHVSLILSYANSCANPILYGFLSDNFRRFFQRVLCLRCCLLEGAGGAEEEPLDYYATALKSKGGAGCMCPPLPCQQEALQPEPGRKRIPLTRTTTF

[5] = molecular target: Somatostatin receptor type 3 (Homo sapiens, UniProt P32745); test: Tested for ability to bind to 20 uM thick cryostat sections of a membrane pellet of cells transfected with human cloned somatostatin (sst) receptor subtype 3.
Somatostatin receptor type 3, sequence (P32745 whole entry): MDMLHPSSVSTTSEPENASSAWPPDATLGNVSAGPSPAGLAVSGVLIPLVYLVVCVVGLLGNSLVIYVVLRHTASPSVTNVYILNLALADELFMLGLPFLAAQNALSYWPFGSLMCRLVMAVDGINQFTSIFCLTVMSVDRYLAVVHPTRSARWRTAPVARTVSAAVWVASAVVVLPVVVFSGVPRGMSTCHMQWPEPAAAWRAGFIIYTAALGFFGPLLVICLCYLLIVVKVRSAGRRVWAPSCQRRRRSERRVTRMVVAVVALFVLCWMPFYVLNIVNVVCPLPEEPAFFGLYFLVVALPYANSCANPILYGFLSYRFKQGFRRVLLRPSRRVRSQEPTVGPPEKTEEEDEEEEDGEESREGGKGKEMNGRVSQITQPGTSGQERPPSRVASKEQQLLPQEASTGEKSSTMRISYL

Question: With `C[C@@H](O)[C@@H]1NC(=O)[C@H](Cc2ccccc2)NC(=O)[C@H]([C@@H](C)O)NC(=O)[C@H](Cc2ccc(Nc3nnc(N)[nH]3)cc2)NC(=O)[C@@H](Cc2c[nH]c3ccccc23)NC(=O)[C@H](Cc2ccccc2)NC(=O)[C@H](Cc2ccccc2)NC(=O)[C@H](CCCCN)NC(=O)[C@@H](N)CSSC[C@@H](C(=O)O)NC(=O)[C@H](CO)NC1=O` as the molecule, how does the pIC50 [1] read?
Answer: < 6.00

Question: And the pIC50 [2]?
Answer: < 5.00

Question: What about the pIC50 [3] of the same molecule?
Answer: < 5.00

Question: And the pIC50 [4]?
Answer: < 5.00

Question: And the pIC50 [5]?
Answer: < 5.00

Question: With `CC(C)NCc1ccc(C[C@@H]2NC(=O)[C@@H](Cc3ccc4ccccc4c3)NC(=O)[C@H](Cc3ccccc3)NC(=O)[C@H](Cc3ccccc3)NC(=O)[C@H](CCCCN)NC(=O)[C@H](NC(=O)CCc3ccc(O)cc3)CSSC[C@H](C(=O)O)NC(=O)[C@H](CO)NC(=O)[C@H]([C@@H](C)O)NC(=O)[C@H](Cc3ccccc3)NC(=O)[C@H]([C@@H](C)O)NC2=O)cc1` as the molecule, how does the pIC50 [1] read?
Answer: < 6.00

Question: And the pIC50 [2]?
Answer: < 6.00

Question: And the pIC50 [3]?
Answer: < 6.00

Question: And the pIC50 [4]?
Answer: < 6.00

Question: What about the pIC50 [5] of the same molecule?
Answer: < 6.00

Question: Which results are given for `CC(C)NCc1ccc(C[C@@H]2NC(=O)[C@@H](Cc3c[nH]c4ccccc34)NC(=O)[C@H](Cc3ccccc3)NC(=O)[C@H](Cc3ccccc3)NC(=O)[C@H](CCCCN)NC(=O)[C@@H](N)CSSC[C@@H](C(=O)O)NC(=O)[C@H](CO)NC(=O)[C@H]([C@@H](C)O)NC(=O)[C@H](Cc3ccccc3)NC(=O)[C@H]([C@@H](C)O)NC2=O)cc1` (H-CKFF[dW][Phe(4-CH2NHiPr)]TFTSC-OH; disulfide 1-11)?
Answer: pIC50 [2]: < 5.00; pIC50 [3]: < 5.00; pIC50 [5]: 6.46

Question: How did the pIC50 [3] turn out when `C[C@@H](O)[C@@H]1NC(=O)[C@H](CCCCN)NC(=O)[C@@H](Cc2c[nH]c3ccccc23)NC(=O)[C@H](Cc2ccccc2)NC(=O)[C@H](Cc2ccccc2)NC(=O)[C@@H](N)CSSC[C@@H](C(=O)O)NC(=O)[C@H](Cc2ccccc2)NC1=O` (H-CFF[dW]KTFC-OH; disulfide 1-8) was run?
Answer: 7.36

Question: And the pIC50 [4]?
Answer: 8.89

Question: How did the pIC50 [1] turn out when `CC(C)NCc1ccc(C[C@@H]2NC(=O)[C@@H](Cc3ccc4ccccc4c3)NC(=O)[C@H](Cc3ccccc3)NC(=O)[C@H](Cc3ccccc3)NC(=O)[C@H](CCCCN)NC(=O)[C@@H](N)CSSC[C@@H](C(=O)O)NC(=O)[C@H](CO)NC(=O)[C@H]([C@@H](C)O)NC(=O)[C@H](Cc3ccccc3)NC(=O)[C@H]([C@@H](C)O)NC2=O)cc1` (H-CKFF[d2Nal][Phe(4-CH2NHiPr)]TFTSC-OH; disulfide 1-11) was run?
Answer: 6.99

Question: What about the pIC50 [2] of the same molecule?
Answer: < 5.00

Question: And the pIC50 [3]?
Answer: < 6.00

Question: What about the pIC50 [4] of the same molecule?
Answer: < 6.00

Question: What about the pIC50 [5] of the same molecule?
Answer: < 6.00

Question: Which results are given for `CNCc1ccc(C[C@@H]2NC(=O)[C@@H](Cc3ccc4ccccc4c3)NC(=O)[C@H](Cc3ccccc3)NC(=O)[C@H](Cc3ccccc3)NC(=O)[C@H](CCCCN)NC(=O)[C@@H](N)CSSC[C@@H](C(=O)O)NC(=O)[C@H](CO)NC(=O)[C@H]([C@@H](C)O)NC(=O)[C@H](Cc3ccccc3)NC(=O)[C@H]([C@@H](C)O)NC2=O)cc1`?
Answer: pIC50 [1]: 7.00; pIC50 [2]: < 6.00; pIC50 [3]: 6.25; pIC50 [4]: < 5.00; pIC50 [5]: 6.55

Question: What does the source list for `CC(C)NCc1ccc(C[C@@H]2NC(=O)[C@@H](Cc3c[nH]c4ccccc34)NC(=O)[C@H](Cc3ccccc3)NC(=O)[C@H](Cc3ccccc3)NC(=O)[C@H](CC(N)=O)NC(=O)[C@H](CCCCN)NC(=O)[C@@H](N)CSSC[C@@H](C(=O)O)NC(=O)[C@H](CO)NC(=O)[C@H]([C@@H](C)O)NC(=O)[C@H](Cc3ccccc3)NC(=O)[C@H]([C@@H](C)O)NC2=O)cc1` (H-CKNFF[dW][Phe(4-CH2NHiPr)]TFTSC-OH; disulfide 1-12)?
Answer: pIC50 [1]: 6.35; pIC50 [2]: < 5.00; pIC50 [3]: < 6.00; pIC50 [4]: < 5.00; pIC50 [5]: < 5.00

Question: Which results are given for `C[C@H](N)C(=O)NCC(=O)N[C@H]1CSSC[C@@H](C(=O)O)NC(=O)[C@H](CO)NC(=O)[C@H]([C@@H](C)O)NC(=O)[C@H](Cc2ccccc2)NC(=O)[C@H]([C@@H](C)O)NC(=O)[C@H](CCCCN)NC(=O)[C@@H](Cc2c[nH]c3ccccc23)NC(=O)[C@H](Cc2ccccc2)NC(=O)[C@H](Cc2ccccc2)NC(=O)[C@H](CCCCN)NC1=O` (H-AGCKFF[dW]KTFTSC-OH; disulfide 3-13)?
Answer: pIC50 [1]: 9.00; pIC50 [2]: 8.30; pIC50 [3]: 7.37; pIC50 [4]: 8.77; pIC50 [5]: 8.47

Question: Which results are given for `CC(C)NCc1ccc(C[C@@H]2NC(=O)[C@@H](Cc3c[nH]c4ccccc34)NC(=O)[C@H](Cc3ccccc3)NC(=O)[C@H](Cc3ccccc3)NC(=O)[C@H](CCCCN)NC(=O)[C@H](NC(=O)[C@@H](N)Cc3ccc(O)cc3)CSSC[C@@H](C(=O)O)NC(=O)[C@H](CO)NC(=O)[C@H]([C@@H](C)O)NC(=O)[C@H](Cc3ccccc3)NC(=O)[C@H]([C@@H](C)O)NC2=O)cc1`?
Answer: pIC50 [3]: < 5.00; pIC50 [4]: < 6.00; pIC50 [5]: < 6.00

Question: How did the pIC50 [1] turn out when `CC(C)NCc1ccc(C[C@@H]2NC(=O)[C@@H](Cc3c[nH]c4ccccc34)NC(=O)[C@H](Cc3ccccc3)NC(=O)[C@H](Cc3ccccc3)NC(=O)[C@H](CCCCN)NC(=O)[C@@H](N)CSSC[C@@H](C(=O)O)NC(=O)[C@@H](CO)NC(=O)[C@H]([C@@H](C)O)NC(=O)[C@H](Cc3ccccc3)NC(=O)[C@H]([C@@H](C)O)NC2=O)cc1` (H-CKFF[dW][Phe(4-CH2NHiPr)]TFT[dS]C-OH; disulfide 1-11) was run?
Answer: 6.73

Question: And the pIC50 [2]?
Answer: < 6.00

Question: What about the pIC50 [3] of the same molecule?
Answer: < 5.00

Question: And the pIC50 [4]?
Answer: < 6.00

Question: And the pIC50 [5]?
Answer: < 6.00

Question: How did the pIC50 [2] turn out when `CC(C)NCc1ccc(C[C@@H]2NC(=O)[C@@H](Cc3c[nH]c4ccccc34)NC(=O)[C@H](Cc3ccccc3)NC(=O)[C@H](Cc3ccccc3)NC(=O)[C@@H](N)CSSC[C@@H](C(=O)O)NC(=O)[C@H](Cc3ccccc3)NC(=O)[C@H]([C@@H](C)O)NC2=O)cc1` (H-CFF[dW][Phe(4-CH2NHiPr)]TFC-OH; disulfide 1-8) was run?
Answer: < 5.00

Question: And the pIC50 [3]?
Answer: < 5.00

Question: `CC(C)NCc1ccc(C[C@@H]2NC(=O)[C@@H](Cc3c[nH]c4ccccc34)NC(=O)[C@H](Cc3ccccc3)NC(=O)[C@H](Cc3ccccc3)NC(=O)[C@@H](NC(=O)[C@@H](N)Cc3ccc(O)cc3)CSSC[C@@H](C(=O)O)NC(=O)[C@H]([C@@H](C)O)NC(=O)[C@H](Cc3ccccc3)NC(=O)[C@H]([C@@H](C)O)NC2=O)cc1` was tested. Which pIC50 [1] did it give?
Answer: 6.14

Question: What about the pIC50 [3] of the same molecule?
Answer: < 5.00

Question: And the pIC50 [4]?
Answer: < 6.00

Question: What about the pIC50 [5] of the same molecule?
Answer: 6.35

Question: How did the pIC50 [1] turn out when `CC(C)NCc1ccc(C[C@@H]2NC(=O)[C@@H](Cc3c[nH]c4ccccc34)NC(=O)[C@H](Cc3ccccc3)NC(=O)[C@@H](NC(=O)[C@@H](N)Cc3ccc(O)cc3)CSSC[C@@H](C(=O)O)NC(=O)[C@H](Cc3ccccc3)NC(=O)[C@H]([C@@H](C)O)NC2=O)cc1` (H-YCF[dW][Phe(4-CH2NHiPr)]TFC-OH; disulfide 2-8) was run?
Answer: < 6.00

Question: What about the pIC50 [3] of the same molecule?
Answer: < 6.00

Question: What about the pIC50 [4] of the same molecule?
Answer: < 6.00

Question: And the pIC50 [5]?
Answer: < 6.00

Question: Which results are given for `CC(C)NCc1ccc(C[C@@H]2NC(=O)[C@@H](Cc3c[nH]c4ccccc34)NC(=O)[C@H](Cc3ccccc3)NC(=O)[C@H](Cc3ccccc3)NC(=O)[C@H](CCCCN)NC(=O)[C@@H](NC(=O)[C@@H](N)Cc3ccc(O)cc3)CSSC[C@@H](C(=O)O)NC(=O)[C@H](CO)NC(=O)[C@H]([C@@H](C)O)NC(=O)[C@H](Cc3ccccc3)NC(=O)[C@H]([C@@H](C)O)NC2=O)cc1`?
Answer: pIC50 [4]: < 5.00; pIC50 [5]: 6.15

Question: How did the pIC50 [1] turn out when `CC(C)NCc1ccc(C[C@@H]2NC(=O)[C@@H](Cc3ccc4ccccc4c3)NC(=O)[C@H](Cc3ccccc3)NC(=O)[C@H](Cc3ccccc3)NC(=O)[C@H](CCCCN)NC(=O)[C@H](NC(=O)CCc3ccc(O)cc3)CSSC[C@@H](C(=O)O)NC(=O)[C@H](CO)NC(=O)[C@H]([C@@H](C)O)NC(=O)[C@H](Cc3ccccc3)NC(=O)[C@@H]([C@@H](C)O)NC2=O)cc1` (stereo in doubt; 30) was run?
Answer: 6.07

Question: And the pIC50 [2]?
Answer: < 6.00

Question: And the pIC50 [5]?
Answer: 6.12
